In PubChem BioAssay (NCI):
“And” between values parts separate entries of the source, which are not always exact repeats. Equal values may be shown once.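 All cell lines were grown in 96-well plates and treated with compound for 48 hours. The concentration for 50% growth inhibition is given as GI50. At the TGI there is no net growth.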

Columns and labels:
Test in all cases: growth of human tumour cells (NCI), 48 h
[1] = system: ACHN renal
[2] = system: CAKI-1 renal
[3] = system: HOP-62 NSCLC
[4] = system: MCF7 breast
[5] = system: MDA-MB-231 breast
[6] = system: RXF 393 renal
[7] = system: SF-539 CNS
[8] = system: SR leukemia
[9] = system: U251 CNS
[10] = system: UACC-257 melanoma

`O=C(N/N=C/c1ccc(O)cc1O)c1cccc(Nc2ccnc(C(F)(F)F)c2)c1` showed a GI50 [1] of 1.25 µM, a TGI [1] of 29.6 µM and a GI50 [2] of 1.99 µM. For the same compound, the TGI [2] was 22.5 µM, the GI50 [3] was 0.709 µM and the TGI [3] was 24.7 µM. It also gave a GI50 [4] of 2.2 µM, a TGI [4] of 15.5 µM and a GI50 [5] of 1.08 µM. For the same compound, the TGI [5] was 51.8 µM, the GI50 [6] was 2.48 µM and the TGI [6] was 17.4 µM. The GI50 [7] was 0.967 µM, the TGI [7] was 7.74 µM and the GI50 [8] was 0.29 µM. For the same compound, the TGI [8] was 6.34 µM, the GI50 [9] was 0.617 µM and the TGI [9] was 49 µM. The GI50 [10] was 3.06 µM and the TGI [10] was 12.3 µM.

`CC(=[N-])N1CCC[C@@H](Nc2c3ccccc3nc3ccccc23)C1.[Cl][Pt].[NH-]CCC[NH-]` gave a GI50 [1] of 0.159 µM, a TGI [1] of 2.47 µM and a GI50 [3] of 1.72 µM. The TGI [3] was over 100 µM, the GI50 [4] was 0.357 µM and the TGI [4] was over 100 µM. The GI50 [5] was 2.1 µM, the TGI [5] was 89.1 µM and the GI50 [6] was 1.25 µM. It also gave a TGI [6] of 2.96 µM, a GI50 [7] of 2.53 µM and a TGI [7] of 18.1 µM. The GI50 [8] was 0.445 µM, the TGI [8] was over 100 µM and the GI50 [9] was 1.58 µM. The TGI [9] was over 100 µM, the GI50 [10] was 2.49 µM and the TGI [10] was over 100 µM.

`Cc1ccc(C(=O)/C(=C\c2ccc([N+](=O)[O-])cc2)S(=O)Cc2ccc(Cl)cc2)cc1` (stereo not given) gave a GI50 [1] of 2.09 µM, a TGI [1] of 4.98 µM and a GI50 [2] of 1.81 µM. It also gave a TGI [2] of 4.04 µM, a GI50 [3] of 2.39 µM and a TGI [3] of 6.21 µM. The GI50 [4] was 1.38 µM, the TGI [4] was 3.68 µM and the GI50 [5] was 1.86 µM. The TGI [5] was 3.88 µM, the GI50 [6] was 1.65 µM and the TGI [6] was 3.1 µM. It also gave a GI50 [7] of 1.85 µM, a TGI [7] of 3.37 µM and a GI50 [8] of 1.13 µM. For the same compound, the TGI [8] was 10.1 µM, the GI50 [9] was 1.56 µM and the TGI [9] was 3 µM. For the same compound, the GI50 [10] was 1.89 µM and the TGI [10] was 3.89 µM.

In the case of `C=C1C(=O)O[C@H]2[C@H]1CC/C(COC(=O)C(C)c1ccc(CC(C)C)cc1)=C\CC[C@@]1(C)O[C@@H]21` (stereo not given in full), the GI50 [1] is reported as 1.29 µM, the TGI [1] is reported as 2.56 µM and the GI50 [2] is reported as 1.67 µM. The TGI [2] was 3.04 µM, the GI50 [3] was 1.88 µM and the TGI [3] was 4.26 µM. The GI50 [4] was 0.791 µM, the TGI [4] was 2.49 µM and the GI50 [5] was 1.38 µM. The TGI [5] was 2.73 µM, the GI50 [6] was 1.38 µM and the TGI [6] was 2.75 µM. For the same compound, the GI50 [7] was 1.6 µM, the TGI [7] was 2.97 µM and the GI50 [8] was 0.287 µM. For the same compound, the TGI [8] was 1.86 µM, the GI50 [9] was 1.49 µM and the TGI [9] was 2.89 µM. For the same compound, the GI50 [10] was 1.66 µM and the TGI [10] was 3.32 µM.

`CC(C)=CCC/C(C)=C\CCC1(C)OC(=O)C2CC21` (stereo not given) was tested, and the GI50 [1] was > 100 µM and 25.1 µM, the TGI [1] was > 100 µM and 59.8 µM and the TGI [2] was > 100 µM and 43 µM. The TGI [3] was over 100 µM, the GI50 [4] was 64.9 µM and 21.6 µM and the TGI [4] was > 100 µM and 52.6 µM. For the same compound, the TGI [5] was over 100 µM, the TGI [6] was 92.3 µM and the GI50 [8] was 24.3 µM and 6.4 µM. For the same compound, the TGI [8] was > 100 µM and 37.2 µM, the GI50 [9] was 51.5 µM and 24.1 µM and the TGI [9] was > 100 µM and 61.4 µM. The TGI [10] was over 100 µM.

Work on `C/C(O)=C(\C#N)C(=O)Nc1ccc(C(F)(F)F)cc1` yielded a GI50 [1] of 45.7 µM, a TGI [1] of over 100 µM and a GI50 [2] of 5.46 µM. The TGI [2] was over 100 µM, the GI50 [3] was 77.9 µM and the TGI [3] was over 100 µM. For the same compound, the GI50 [4] was 38.5 µM, the TGI [4] was over 100 µM and the GI50 [5] was 26.3 µM. For the same compound, the TGI [5] was over 100 µM, the GI50 [6] was 18.6 µM and the TGI [6] was over 100 µM. For the same compound, the GI50 [7] was 16 µM, the TGI [7] was over 100 µM and the GI50 [8] was over 100 µM. For the same compound, the TGI [8] was over 100 µM, the GI50 [9] was 5.34 µM and the TGI [9] was over 100 µM. For the same compound, the GI50 [10] was over 100 µM and the TGI [10] was over 100 µM.

For `C/C(=N\NC(=S)SCc1ccccc1)c1ccccn1`, the TGI [1] was 1.95 µM, the TGI [2] was 4.93 µM and the TGI [4] was under 0.01 µM. It also gave a TGI [5] of 4.08 µM, a TGI [6] of 3.03 µM and a TGI [7] of 2.49 µM. For the same compound, the TGI [8] was 1.77 µM, the TGI [9] was 13.3 µM and the TGI [10] was 1.42 µM.
